Oligonucleotides are written 5' to 3', each unit as a sugar letter and its base; * is a phosphorothioate linkage, no mark a phosphodiester; rarer units and linkages stand in square brackets, end groups in braces. Plain capitals give the bases only. e = 2'-O-(2-methoxyethyl) (MOE); [5mC] = 5-methylcytosine; d = 2'-deoxy (DNA)
Columns and labels:
Mouse STAT3 protein = experiment: STAT3 protein levels in BCL1 cells by Western blot, dose response; type: cell-based
Method: ISIS 17152 (SEQ ID. NO. 99) was chosen for further study. The effect of this oligonucleotide on protein levels was determined by Western blot. ISIS 23177 (SEQ ID NO. 106), a 3 base mismatch, was used as a control. BCL1 cells were grown, treated and processed as described in Example 2.
Nuclear extracts from primary B cells and B lymphoma cell lines were prepared as described in Karras, J. G., et al. (J. Exp. Med., 1997, 185, 1035-1042).
Western blotting was performed as described in Karras, J. G. et al. (J. Immunol., 1996, 157, 2299). STAT1 and STAT3 antibodies were obtained from UBI (Lake Placid, N.Y.).

BCL1 cells = experiment: BCL1 cell proliferation, [3H]-thymidine incorporation; type: cell-based, mouse; conditions: BCL1 cells; for % Cell Proliferation: 48 hours after electroporation
Method: The effect of ISIS 17152 (SEQ ID NO. 99) on BCL1 proliferation was determined. BCL1 cells contain constitutively active STAT3 which is thought to be responsible for their proliferation. BCL1 cells were grown, treated and processed as described in Example 2.
1×10^5 BCL1 cells were incubated in 96-well plates in […] complete RPMI following electroporation. Cultures were pulsed with […] of [^3H]-thymidine for the last 8 hours of culture and cells were harvested and analyzed for thymidine incorporation as described in Francis, D. A. et al. (Int. Immunol., 1995, 7, 151-161) 48 hours after electroporation.

[1] = test system: IgM secretion by BCL1 cells; experiment: BCL1 IgM secretion, ELISA; type: cell-based, mouse
Method: The effect of ISIS 17152 (SEQ ID. NO. 99) on IgM secretion levels was determined. STAT3 has been implicated in regulation of IgM expression (Faris, M., et al., Immunology, 1997, 90, 350-357). BCL1 cells were grown, treated and processed as described in Example 2.
1×10^6 BCL1 cells were incubated in 12-well plates in 2 mL complete RPMI following electroporation. Supernatant was replaced at 24 hour post electroporation with fresh medium. 48 hours later, supernatants were harvested, centrifuged to remove cells, and assayed for IgM content using the OPT-EIA™ ELISA kit (Pharmingen, San Diego, Calif.) and capture and detecting antibodies for mouse IgM (Southern Biotechnology, Birmingham, Ala.).

Mouse STAT3 mRNA = experiment: Inhibition of mouse STAT3 mRNA expression in BCL1 cells (electroporation; RNase protection/Northern blot); type: cell-based; set-up: % mRNA INHIBITION: dose or concentration left out as unconfirmed; conditions: BCL1 cells electroporated with oligonucleotide, RNA collected 24 hours later
Method: The B lymphoma cell line, BCL1 was obtained from ATCC (Rockville, Md.). BCL1 cells were cultured in RPMI 1640 medium.
BCL1 cells (5×10^6 cells in PBS) were transfected with oligonucleotides by electroporation, at 200V, […]. using a BTX Electro Cell Manipulator 600 (Genetronics, San Diego, Calif.). For an initial screen, BCL1 were electroporated with […] oligonucleotide and RNA collected 24 hours later. Controls without oligonucleotide were subjected to the same electroporation conditions.
Total cellular RNA was isolated using the RNEASY7 kit (Qiagen, Santa Clarita, Calif.). RNAse protection experiments were conducted using RIBOQUANT™ kits and template sets according to the manufacturer's instructions (Pharmingen, San Diego, Calif.). Northern blotting was performed as described in Chiang, M-Y. et al. (J. Biol. Chem., 1991, 266, 18162-18171), using a rat cDNA probe prepared by Xho I/Sal I restriction digest of psvsport-1 plasmid (ATCC, Rockville, Md.). mRNA levels were quantitated using a PhosphorImager (Molecular Dynamics, Sunnyvale, Calif.).

RANTES mRNA = experiment: Induction of chemokines in BCL1 cells, RNase protection assay: RANTES; type: cell-based, mouse; conditions: CpG oligonucleotide induced
Method: (§1) The effect of ISIS 17152 (SEQ ID. NO. 99) on chemokine levels was determined. BCL1 cells were grown, treated and processed as described in Example 2. Chemokine gene expression was induced in BCL1 cells by addition of […] of a CpG-containing oligonucleotide to the media 16 hours following antisense oligonucleotide electroporation. CpG-containing oligonucleotides are immune-stimulatory (Krieg, A. M., et al., Nature, 1995, 374, 546-549). The levels of chemokines were measured eight hours later using RNase protection assay as described in Example 2 with a mouse chemokine template set, Mck-5 (Pharmingen, San Diego, Calif.).

MIP1a mRNA = experiment: Induction of chemokines in BCL1 cells, RNase protection assay: MIP1a; type: cell-based, mouse; conditions: CpG oligonucleotide induced
Method: as §1

MIP1b mRNA = experiment: Induction of chemokines in BCL1 cells, RNase protection assay: MIP1b; type: cell-based, mouse; conditions: CpG oligonucleotide induced
Method: as §1

Human STAT3 mRNA = experiment: Inhibition of human STAT3 mRNA expression in U266 cells, Northern blot; type: cell-based; conditions: U266 cells, 2.5 μM oligonucleotide, electroporation, 24 hours
Method: U266 human myeloma cell lines (originally obtained from American Type Culture Collection) were maintained in RPMI 1640 medium supplemented with 10% fetal calf serum. Cells (15×10^6 cells in PBS) were transfected with oligonucleotides at 200V with a single 6-millisecond pulse using a BTX Electro Square Porator T820 (Genetronics, San Diego Calif.). The cells were incubated for 24 hours before RNA extraction.
Total cellular RNA was isolated using the Rneasy kit (Qiagen, Santa Clarita, Calif.). Northern blotting was perfomed on 15 μg of RNA using a cDNA probe prepared from MB-MDA 468 RNA by standard RT-PCR followed by a nested primer reaction. Signals were quantitated using a Molecular Dynamics Phosphorimager.
In order to examine the importance of STAT3 expression in multiple myeloma cells, a series of 20mer STAT3 antisense oligonucleotides were designed and synthesized, using phosphorothioate chemistry and incorporating 2′-O-methoxyethyl modifications to improve hybridization affinity and nuclease resistance.

| Substance | % protein Expression (Mouse STAT3 protein; dose 10 nM) [%] | % protein Inhibition (Mouse STAT3 protein; dose 10 nM) [%] | % protein Expression (Mouse STAT3 protein; dose 15 nM) [%] | % protein Inhibition (Mouse STAT3 protein; dose 15 nM) [%] | % protein Expression (Mouse STAT3 protein; dose 20 nM) [%] | % protein Inhibition (Mouse STAT3 protein; dose 20 nM) [%] | % Cell Proliferation (BCL1 cells; dose 10 nM) [%] | % Cell Inhibition (BCL1 cells; dose 15 nM) [%] | % Cell Proliferation (BCL1 cells; dose 15 nM) [%] | % Cell Proliferation (BCL1 cells; dose 20 nM) [%] | % IgM Expression ([1]; dose 5 nM) [%] | % IgM Expression ([1]; dose 15 nM) [%] | % IgM Inhibition ([1]; dose 15 nM) [%] | other results |
| --- | --- | --- | --- | --- | --- | --- | --- | --- | --- | --- | --- | --- | --- | --- |
| 23177 (antisense eA*eA*eA*eA*eA*dG*dT*dC*dC*dG*dC*dT*dG*dA*dT*eT*eG*e[5mC]*e[5mC]*e[5mC]) [compound 23177] | 75.1 | 24.9 | 67.6 | 32.4 | 62.6 | 37.4 | 117.0 | 0.3 | 99.7 | 107.0 | 110.0 | 80.8 | 19.2 | – |
| 17152 (antisense eA*eA*eA*eA*eA*dG*dT*dG*dC*dC*dC*dA*dG*dA*dT*eT*eG*e[5mC]*e[5mC]*e[5mC]) [compound 17152] | 41.7 | 58.3 | 42.5 | 57.5 | 26.5 | 73.5 | 78.5 | 45.6 | 54.4 | 50.2 | 34.2 | 23.1 | 76.9 | % mRNA INHIBITION (Mouse STAT3 mRNA): 75%; % mRNA EXPRESSION (Mouse STAT3 mRNA; control 100%): 25%; % Cell Inhibition (BCL1 cells; dose 10 nM): 21.5%; % Cell Inhibition (BCL1 cells; dose 20 nM): 49.8%; % IgM Inhibition ([1]; dose 5 nM): 65.8%; % RANTES mRNA (RANTES mRNA; dose 5 nM, control 100%): 236%; % RANTES mRNA (RANTES mRNA; dose 10 nM): 266%; % RANTES mRNA (RANTES mRNA; dose 20 nM): 257%; % MIP1a mRNA (MIP1a mRNA; dose 5 nM): 201%; % MIP1a mRNA (MIP1a mRNA; dose 10 nM): 258%; % MIP1a mRNA (MIP1a mRNA; dose 20 nM): 254%; % MIP1b mRNA (MIP1b mRNA; dose 5 nM): 133%; % MIP1b mRNA (MIP1b mRNA; dose 10 nM): 150%; % MIP1b mRNA (MIP1b mRNA; dose 20 nM): 159%; % mRNA INHIBITION (Human STAT3 mRNA): 17.5%; % mRNA EXPRESSION (Human STAT3 mRNA; percent of control): 82.5% |

Source: US20050074879A1, “Antisense oligonucleotide modulation of STAT3 expression” (priority 2000, published 2005)
